Measured values as given in ChEMBL document CHEMBL1154377, “Evaluation of basic, heterocyclic ring systems as templates for use as potassium competitive acid blockers (pCABs)” (Bioorg Med Chem Lett, 2009).

Columns and labels:
[1] = Chromatographic hydrophobicity index at pH 7.4 by fast gradient HPLC; assay type: physicochemical; settings: buffer
[2] = Inhibition of H+/K+ ATPase at pH 7.4
Cytochrome P450 2D6 = Cytochrome P450 2D6 (Homo sapiens, UniProt P10635); experiment: Inhibition of CYP2D6; assay type: ADME
Cytochrome P450 2C19 = Cytochrome P450 2C19 (Homo sapiens, UniProt P33261); experiment: Inhibition of CYP2C19; assay type: ADME
Cytochrome P450 2C9 = Cytochrome P450 2C9 (Homo sapiens, UniProt P11712)
[3] = Intrinsic clearance in rat liver microsomes; assay type: ADME, Microsome
[4] = Dissociation constant, pKa of the compound; assay type: physicochemical
[5] = Intrinsic clearance in human liver microsomes; assay type: ADME, Microsome
Cytochrome P450 3A4 [6] = molecular target: T1, Cytochrome P450 3A4 (Homo sapiens, UniProt P08684); experiment: Inhibition of CYP3A4 using diethoxyfluorescein substrate; assay type: ADME
[7] = Inhibition of H+/K+ ATPase in parietal cells assessed as inhibition of histamine-stimulated [14C]aminopyrine accumulation
Cytochrome P450 1A2 = molecular target: T2, Cytochrome P450 1A2 (Homo sapiens, UniProt P05177); experiment: Inhibition of CYP1A2; assay type: ADME
T2 sequence (P05177 whole entry): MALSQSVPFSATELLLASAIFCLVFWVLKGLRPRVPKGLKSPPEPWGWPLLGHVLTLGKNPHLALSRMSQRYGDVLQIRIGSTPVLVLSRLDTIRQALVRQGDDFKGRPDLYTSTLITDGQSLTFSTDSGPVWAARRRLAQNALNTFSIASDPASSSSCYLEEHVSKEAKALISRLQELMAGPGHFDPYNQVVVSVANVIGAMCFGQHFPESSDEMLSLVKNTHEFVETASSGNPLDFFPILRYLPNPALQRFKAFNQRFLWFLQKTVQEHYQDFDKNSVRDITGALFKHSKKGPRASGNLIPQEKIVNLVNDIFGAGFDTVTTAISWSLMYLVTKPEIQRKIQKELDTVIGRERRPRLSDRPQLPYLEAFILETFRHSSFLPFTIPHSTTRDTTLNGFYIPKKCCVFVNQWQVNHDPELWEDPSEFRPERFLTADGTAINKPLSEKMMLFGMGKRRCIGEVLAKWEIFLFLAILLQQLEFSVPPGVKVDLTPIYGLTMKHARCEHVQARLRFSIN

Cytochrome P450 3A4 [8] = molecular target: T1, Cytochrome P450 3A4; experiment: Inhibition of CYP3A4 using 7-benzyloxyquinoline substrate; assay type: ADME
[9] = Intrinsic clearance in dog liver microsomes; assay type: ADME, Canis lupus familiaris, Microsome

Chain of Cytochrome P450 2D6 (P10635 whole entry): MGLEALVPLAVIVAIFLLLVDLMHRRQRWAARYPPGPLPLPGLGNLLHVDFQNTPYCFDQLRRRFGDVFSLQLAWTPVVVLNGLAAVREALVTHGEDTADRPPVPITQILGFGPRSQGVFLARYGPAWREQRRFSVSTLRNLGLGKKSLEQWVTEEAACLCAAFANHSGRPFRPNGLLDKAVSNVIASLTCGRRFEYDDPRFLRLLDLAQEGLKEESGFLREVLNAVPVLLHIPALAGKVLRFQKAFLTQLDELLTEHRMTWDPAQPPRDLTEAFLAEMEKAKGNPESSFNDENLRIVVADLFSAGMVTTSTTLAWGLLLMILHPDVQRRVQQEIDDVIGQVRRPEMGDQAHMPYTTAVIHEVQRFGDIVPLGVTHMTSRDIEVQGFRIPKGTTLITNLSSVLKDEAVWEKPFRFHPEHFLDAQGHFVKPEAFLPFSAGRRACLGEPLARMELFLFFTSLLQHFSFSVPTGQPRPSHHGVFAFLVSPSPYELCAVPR
T1 sequence (P08684 whole entry): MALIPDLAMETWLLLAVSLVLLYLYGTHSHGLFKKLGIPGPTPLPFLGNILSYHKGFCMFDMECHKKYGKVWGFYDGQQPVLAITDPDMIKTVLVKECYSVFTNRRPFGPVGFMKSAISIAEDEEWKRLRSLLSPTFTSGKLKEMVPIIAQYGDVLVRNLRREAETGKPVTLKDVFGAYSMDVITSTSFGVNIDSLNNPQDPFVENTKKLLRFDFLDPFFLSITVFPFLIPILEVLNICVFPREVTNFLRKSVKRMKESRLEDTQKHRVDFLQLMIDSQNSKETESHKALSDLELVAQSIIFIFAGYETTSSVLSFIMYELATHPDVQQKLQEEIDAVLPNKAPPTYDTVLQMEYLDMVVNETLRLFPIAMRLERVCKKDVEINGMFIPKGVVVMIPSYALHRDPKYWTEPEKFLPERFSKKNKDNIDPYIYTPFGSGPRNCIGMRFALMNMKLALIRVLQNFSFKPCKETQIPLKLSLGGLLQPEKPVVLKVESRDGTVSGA
Chain of Cytochrome P450 2C19 (P33261 whole entry): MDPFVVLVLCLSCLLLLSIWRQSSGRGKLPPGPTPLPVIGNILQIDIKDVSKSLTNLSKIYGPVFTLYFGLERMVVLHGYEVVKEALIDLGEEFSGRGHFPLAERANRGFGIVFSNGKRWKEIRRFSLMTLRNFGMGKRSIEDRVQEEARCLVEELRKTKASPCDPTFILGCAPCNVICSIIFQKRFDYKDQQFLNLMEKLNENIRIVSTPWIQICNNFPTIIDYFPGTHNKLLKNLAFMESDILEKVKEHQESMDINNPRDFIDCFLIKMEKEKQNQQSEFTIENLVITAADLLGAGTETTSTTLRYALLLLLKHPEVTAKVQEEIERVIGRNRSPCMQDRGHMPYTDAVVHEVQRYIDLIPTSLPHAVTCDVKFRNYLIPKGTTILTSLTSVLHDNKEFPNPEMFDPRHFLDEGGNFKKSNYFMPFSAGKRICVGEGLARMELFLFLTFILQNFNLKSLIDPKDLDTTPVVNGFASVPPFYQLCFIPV
Chain of Cytochrome P450 2C9 (P11712 whole entry): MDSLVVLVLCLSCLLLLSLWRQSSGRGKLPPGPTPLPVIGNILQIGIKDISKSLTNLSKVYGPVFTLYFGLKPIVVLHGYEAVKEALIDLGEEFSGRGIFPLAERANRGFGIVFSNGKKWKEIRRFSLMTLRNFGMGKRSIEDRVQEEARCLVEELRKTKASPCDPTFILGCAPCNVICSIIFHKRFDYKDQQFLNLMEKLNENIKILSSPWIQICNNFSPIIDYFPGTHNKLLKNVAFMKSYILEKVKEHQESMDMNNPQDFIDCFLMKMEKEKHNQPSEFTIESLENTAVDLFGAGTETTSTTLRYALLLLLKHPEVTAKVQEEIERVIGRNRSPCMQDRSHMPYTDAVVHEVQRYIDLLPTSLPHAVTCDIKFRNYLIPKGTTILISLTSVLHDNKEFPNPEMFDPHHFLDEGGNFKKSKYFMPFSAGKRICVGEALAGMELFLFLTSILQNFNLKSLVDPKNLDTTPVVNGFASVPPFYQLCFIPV

Compound | chromatographic logD [1] | pIC50 [2] | IC50 (Cytochrome P450 2D6) [µM] | IC50 (Cytochrome P450 2C19) [µM] | IC50 (Cytochrome P450 2C9) [µM] | CLint scaled [3] [mL/min/kg] | pKa ([4]; read-out: pKa) | CLint scaled [5] [mL/min/kg] | IC50 (Cytochrome P450 3A4 [6]) [µM] | IC50 [7] [nM] | IC50 (Cytochrome P450 1A2) [µM] | IC50 (Cytochrome P450 3A4 [8]) [µM] | pKa [4] | CLint scaled [9] [mL/min/kg]
Cc1cc2ncnc(NCc3c(C)cccc3C)c2s1 | – | < 4 | – | – | – | – | – | – | – | – | – | – | – | –
CCn1c(C)c(C)c2cc(-n3ccccc3=O)nc(NCc3c(C)cccc3C)c21 | 3.9 | 7.4 | 18 | 6.5 | 0.7 | 41 | 4 | 22 | 2.9 | 200 | 65 | – | – | –
Cc1cccc(C)c1CNc1nc(-c2cccc(=O)[nH]2)cc2c(C)c(C)[nH]c12 | 4.12 | 5.1 | 60 | 62 | 2.3 | – | – | – | 1.3 | 316 | > 100 | 2.2 | Insoluble | –
Cc1cccc(C)c1CNc1ncnc2c(C)c(C)[nH]c12 | 2.53 | 5.9 | 0.3 | > 10 | > 100 | 9 | – | 2.8 | 8.8 | 63.1 | > 100 | > 100 | – | –
Cc1cccc(C)c1CNc1nccc2cc[nH]c12 | – | 6.8 | – | – | – | – | 8.63 | – | – | – | – | – | – | –
Cc1cccc(C)c1CNc1cc(C(=O)NCCO)cn2c(C)c(C)nc12 [LINAPRAZAN] | 2.14 | – | – | – | – | 4 | 6.27 | 1.3 | – | 56.2 | – | – | – | 0.9
Cc1cccc(C)c1CNc1nc(N2CCCC2=O)cc2c(C)c(C)[nH]c12 | 3.77 | 7.4 | 1.9 | 6.4 | 1.4 | – | 6.32 | – | 1 | 158 | 26 | 1.8 | – | –
Cc1cccc(C)c1CNc1nc(N2CCOCC2=O)cc2c(C)c(C)n(CCO)c12 | 2.93 | 6.6 | 36 | > 100 | 13 | 6.5 | 5.4 | 6.9 | 6 | 79.4 | > 100 | 11 | – | –
Cc1cccc(C)c1CNc1ncnc2c(C)csc12 | – | < 4 | – | – | – | – | – | – | – | – | – | – | – | –
Cc1cccc(C)c1CNc1nc(N2CCNC2=O)cc2c(C)c(C)[nH]c12 | 2.54 | 6.5 | 0.7 | 8.2 | 2.7 | 6 | – | 1.3 | 1.6 | 158 | 22 | 1.6 | – | –
Cc1cccc(C)c1CNc1nccn2c(C)c(C)cc12 | 3.54 | 7.6 | < 0.1 | 4.7 | 14 | 50 | 7.92 | 11 | 4.7 | 141 | 6.1 | 1.6 | – | –
Cc1cccc(C)c1CNc1nc(N2CCOCC2=O)cc2c(C)c(C)[nH]c12 | 2.83 | 5.9 | 25 | 66 | 61 | 4.3 | – | 1.6 | 22 | 200 | 35 | 22 | Insoluble | –
C=CCn1c(C)c(C)c2cc(-n3ccccc3=O)nc(NCc3c(C)cccc3C)c21 | 4.06 | 7.5 | 26 | 6 | 0.5 | 20 | 4 | 13 | 2.4 | – | 62 | – | – | –
Cc1cccc(C)c1CNc1nc(-n2ccccc2=O)cc2c(C)c(C)n(CCO)c12 | 3.12 | 6.8 | 45.5 | 40 | 11.4 | 21.9 | 4.5 | 12.1 | 5.6 | 251 | > 100 | – | – | –

Other lines, results leading:

chromatographic logD [1] | pIC50 [2] | IC50 (Cytochrome P450 2D6) [µM] | IC50 (Cytochrome P450 2C19) [µM] | IC50 (Cytochrome P450 2C9) [µM] | CLint scaled [3] [mL/min/kg] | pKa ([4]; read-out: pKa) | CLint scaled [5] [mL/min/kg] | IC50 (Cytochrome P450 3A4 [6]) [µM] | IC50 [7] [nM] | IC50 (Cytochrome P450 1A2) [µM] | IC50 (Cytochrome P450 3A4 [8]) [µM] | pKa [4] | CLint scaled [9] [mL/min/kg] | Compound
3.53 | 6.1 | – | – | – | – | – | – | – | – | – | – | – | – | Cc1cccc(C)c1CNc1ccnn2c(C)c(C)nc12
– | 5.5 | 35 | 9.2 | 8.8 | 47 | – | 8 | 13 | 44.7 | 2.1 | 9 | – | – | Cc1cccc(C)c1CNc1cccc2c1nc(C)n2C
5.31 | 6.3 | 0.6 | 0.3 | 6.7 | 3.9 | – | < 0.5 | 7.7 | 316 | 3.7 | 6.6 | Insoluble | – | Cc1cccc(C)c1CNc1nc(-c2ccccc2)cc2c(C)c(C)[nH]c12
3.38 | 7.6 | 2.3 | 6.2 | 16 | – | 7.41 | – | 5.5 | – | 0.7 | 18 | – | – | Cc1cccc(C)c1COc1cccn2c(C)c(C)nc12
– | 4.1 | – | – | – | – | 6.03 | – | – | – | – | – | – | – | Cc1cccc(C)c1CNc1cccn2c(C)ncc12
3.4 | 7.1 | – | – | – | – | – | – | – | 282 | – | – | – | – | Cc1cccc(C)c1CNc1nccn2c(C)c(C)nc12
3.18 | 7.4 | > 33 | 20 | 3.3 | 2.9 | 4.71 | 2.7 | 3 | – | 29 | 90 | – | – | Cc1cccc(C)c1CNc1nc(-n2ccccc2=O)cc2c(C)c(C)[nH]c12
2.27 | 4.5 | – | – | – | – | 5.81 | – | – | – | – | – | – | – | Cc1cccc(C)c1CNc1ccnc2c1nc(C)n2C
– | – | – | – | – | 14 | – | 6.5 | – | 23.4 | – | – | – | 3 | CCc1cccc(C)c1CNc1cc(C(N)=O)cn2c(C)c(C)nc12
4.2 | 7.4 | 82 | > 100 | – | 8.5 | 7.28 | 8 | 9 | 16.6 | 2 | 12 | – | – | Cc1nc2c(OCc3ccccc3)cccn2c1CC#N
